Results taken from PubChem BioAssay AID386.

Biological target: GTP-binding protein Di-Ras1 (Homo sapiens) (UniProt O95057)
Assay: DIRAS1 binders by thermal stabilization, biophysical, recombinant human GTPase, DSF (AID 386)
Settings: SYPRO orange, at 10 µM, protein 2 µM, buffer 10 mM HEPES, pH 7.5, NaCl 150 mM, stronger effect = higher value

Sequence of GTP-binding protein Di-Ras1 (Homo sapiens) (O95057 whole entry, looked up): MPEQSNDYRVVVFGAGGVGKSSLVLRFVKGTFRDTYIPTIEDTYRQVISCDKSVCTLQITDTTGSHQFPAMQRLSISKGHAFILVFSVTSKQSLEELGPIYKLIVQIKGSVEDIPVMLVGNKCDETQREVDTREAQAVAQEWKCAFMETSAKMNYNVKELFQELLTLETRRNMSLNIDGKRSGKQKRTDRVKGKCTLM

Row | SMILES | Tm shift [Celsius]
1 | COc1ccc(S(O)(O)N(CCO)c2ccccc2CN(C)C/C=C/c2ccc(Cl)cc2)cc1 | 4.4
2 | O=c1c(O)c(-c2ccc(O)c(O)c2)oc2cc(O)cc(O)c12 | 3.3
3 | CN[C@@H]1C[C@H]2OC(C)([C@@H]1OC)n1c3ccccc3c3c4c(c5c6ccccc6n2c5c31)C(=O)NC4 | 2.6
4 | NS(=O)(=O)c1ccc(Nc2nc(OCC3CCCCC3)c3[nH]cnc3n2)cc1 | 2.1
